Measured values: patent EP0647618A1, “NEW NON IONIC IODINE-CONTAINING DIMERS USEFUL AS X-RAY CONTRAST AGENTS, METHOD FOR THE PREPARATION THEREOF, AND GALENICAL COMPOSITIONS CONTAINING THEM” (CENTRO INVESTIGACION JUSTESA IMAGEN S.A., priority 1993, dated 1994)

Key:
[1] = Osmolality of aqueous solution at 300 mg I/ml; format: physicochemical; conditions: for OSMOLALITY 37°C mOsm/kg at 300 mg I/ml: 300 mg I/ml (Table I)
physchem = format: physicochemical; conditions: for solubility: water
Description: (§1) On the other hand, radiologists need compounds with a wide range of uses: for example, angiography, urography, myelography, cisternography, lymphography, cardiography and gastrography. The products according to this invention fulfil the requirements for the above uses, as they have high water solubility, normally higher than 60% (w/v), which, in some cases, is as high as 100% at 20°C, without showing any tendency to crystallize. They also have a very low general toxicity, stated as the average lethal dose for the rat, DL₅₀.

RAT = test: General toxicity, average lethal dose (DL50) in the rat, i.v.; format: in vivo
Description: as §1

[2] = Viscosity of aqueous solution at 300 mg I/ml; format: physicochemical; conditions: for VISCOSITY 37°C mPa.s 300 mg I/ml: 300 mg I/ml (Table I)

SMILES	OSMOLALITY mOsm/kg at 300 mg I/ml ([1]; 300 mg I/ml (Table II)) [mOsm/kg]	OSMOLALITY 37°C mOsm/kg at 300 mg I/ml [1] [mOsm/kg]	SOLUBILITY IN WATER at 20° (physchem) [%]	solubility (physchem) [mg/mL]	DL50 (RAT) via i.v. g I/kg (RAT) [g I/kg]	VISCOSITY 37°C mPa.s 300 mg I/ml [2] [mPa.s]	VISCOSITY mPas (37°C) at 300 mg I/ml ([2]; 300 mg I/ml (Table II)) [mPas]
CN(C(=O)CN(CCO)CC(=O)N(C)c1c(I)c(C(=O)NCC(O)CO)c(I)c(C(=O)NCC(O)CO)c1I)c1c(I)c(C(=O)NCC(O)CO)c(I)c(C(=O)NCC(O)CO)c1I (centres unmarked) [ICJ-1692, N,N'-Bis-{3,5-bis-[N-(2,3-dihydroxypropyl)carbamoyl]-2,4,6-triiodophenyl}-N,N'-dimethyl-3-(2-hydroxethyl)-3-azapentanediamide]	174	174	> 60	> 600	> 20	9.3	9.3
CC(=O)N(CC(O)CN(C(C)=O)c1c(I)c(C(=O)NCC(O)CO)c(I)c(C(=O)NCC(O)CO)c1I)c1c(I)c(C(=O)NCC(O)CO)c(I)c(C(=O)NCC(O)CO)c1I (centres unmarked) [IODIXANOL, Iodixanol, reference compound]		190		> 600	> 20	8.7	
